Experimental findings from ChEMBL document CHEMBL3751729, “Benzamide derivatives and their constrained analogs as histamine H3 receptor antagonists” (Eur J Med Chem, 2016) are described below.

One may read the Ki as a dissociation constant, usually derived from enzyme kinetics or from competition with a known ligand. As a reminder, the Cmax is the maximum level reached in the sampled fluid or tissue. The IC50 is the concentration that inhibits the measured activity by half. What is called inhibition is how much of the control response was suppressed. Read a high inhibition as strong suppression. Usually Kp stands for tissue or fluid exposure divided by exposure in the circulation. As usually defined, the ED50 is the dose that gives a 50% effect, or the effect in half of the subjects. Read a high ED50 as weaker potency.

In data set [1] the target is T1, Histamine H3 receptor (Homo sapiens, UniProt Q9Y5N1). Description: Displacement of [3H]R-alpha-methyl histamine from recombinant human H3 receptor. For orientation: In a radioligand displacement assay an active substance lowers the binding of a labelled ligand.
Data set [2] can be described thus: Cmax in fasted Wistar rat at 3 mg/kg, po by LC-MS/MS analysis. It counts as ADME, organism-based. More on the design: dose 3 mg/kg, route oral. Conditions: in vivo.
The target in data set [3] is T1, Histamine H3 receptor. Description: Binding affinity to recombinant human H3 receptor.
The target in data set [4] is T1, Histamine H3 receptor. The data set can be described thus: Antagonist activity at recombinant human H3 receptor expressed on CHO-K1 cells assessed as cAMP level by luciferase gene reporter assay. The class given is functional, cell-based. For orientation: Cyclic AMP is a second messenger, typically raised through Gs and lowered through Gi signalling.
In data set [5] the target is T2, hERG (KCNH2) (Homo sapiens, UniProt Q12809). Description: Inhibition of human ERG at 1 uM by scintillation counting method.
The target in data set [6] is T2, hERG (KCNH2). Description: Inhibition of human ERG at 10 uM by scintillation counting method.
Data set [7] is described as follows: Metabolic stability in human liver microsomes assessed as compound metabolized after 30 mins by LC-MS/MS analysis. The class given is ADME. The note with it: read-out: Drug metabolism. On the technique in general: Liver microsomes are a subcellular fraction often used to study metabolism.
Data set [8] in a line: Metabolic stability in rat liver microsomes assessed as compound metabolized after 30 mins by LC-MS/MS analysis. It counts as ADME. The note with it: read-out: Drug metabolism.
Data set [9] deals with Rattus norvegicus. Description: AUCt in fasted Wistar rat at 3 mg/kg, po by LC-MS/MS analysis. It counts as ADME, organism-based. Conditions: in vivo.
The subject of data set [10] is Rattus norvegicus. The data set can be described thus: Oral bioavailability in fasted Wistar rat at 3 mg/kg by LC-MS/MS analysis. The class given is ADME, organism-based. Conditions: in vivo.
The test system of data set [11] is Rattus norvegicus. The data set can be described thus: Apparent volume of distribution in fasted Wistar rat at 3 mg/kg, iv by LC-MS/MS analysis. The class given is ADME, organism-based. Conditions: in vivo.
Data set [12] can be described thus: Drug uptake in Wistar rat brain at 3 mg/kg, po after 1 hr by LC-MS/MS analysis. The class given is ADME, organism-based. The note with it: read-out: Drug uptake.
A short description of data set [13]: Drug uptake in Wistar rat brain at 10 mg/kg, po after 1 hr by LC-MS/MS analysis. It counts as ADME, organism-based. Conditions: read-out: Drug uptake.
Data set [14] in a line: Drug uptake in Wistar rat brain at 30 mg/kg, po after 1 hr by LC-MS/MS analysis. It counts as ADME, organism-based. Conditions: read-out: Drug uptake.
Data set [15] can be described thus: Plasma concentration in Wistar rat at 3 mg/kg, po after 1 hr by LC-MS/MS analysis. It counts as ADME, organism-based.
Data set [16] in a line: Plasma concentration in Wistar rat at 10 mg/kg, po after 1 hr by LC-MS/MS analysis. It counts as ADME, organism-based.
Data set [17] in a line: Plasma concentration in Wistar rat at 30 mg/kg, po after 1 hr by LC-MS/MS analysis. It counts as ADME, organism-based.
A short description of data set [18]: Ratio of drug level in brain to blood in Wistar rat at 10 mg/kg, po by LC-MS/MS analysis.
The subject of data set [19] is Rattus norvegicus. The data set can be described thus: In vivo receptor occupancy at histamine H3 receptor in po dosed Wistar rat by LC-MS/MS analysis. The class given is functional.
A short description of data set [20]: Cmax in fasted Wistar rat at 5 mg/kg, po by LC-MS/MS analysis. It counts as ADME, organism-based. Also noted: dose 5 mg/kg, route oral. The note with it: in vivo.
In data set [21] the test system is Rattus norvegicus. Description: AUCt in fasted Wistar rat at 5 mg/kg, po by LC-MS/MS analysis. It counts as ADME, organism-based. The note with it: in vivo.
Data set [22] relates to Rattus norvegicus. The data set can be described thus: Oral bioavailability in fasted Wistar rat at 5 mg/kg by LC-MS/MS analysis. Conditions: in vivo. It counts as ADME, organism-based.
Data set [23] concerns Rattus norvegicus. Description: Half life in fasted Wistar rat at 5 mg/kg, iv by LC-MS/MS analysis. It counts as ADME, organism-based. The note with it: in vivo.
In another data set the target is Cytochrome P450 3A4 (Homo sapiens, UniProt P08684). Description: Inhibition of human CYP3A4 after 2 mins by LC-MS/MS analysis. It counts as ADME.
The next data set concerns the target Cytochrome P450 2D6 (Homo sapiens, UniProt P10635). Description: Inhibition of human CYP2D6 after 12 mins by LC-MS/MS analysis. It counts as ADME.

T1 sequence (Q9Y5N1 whole entry): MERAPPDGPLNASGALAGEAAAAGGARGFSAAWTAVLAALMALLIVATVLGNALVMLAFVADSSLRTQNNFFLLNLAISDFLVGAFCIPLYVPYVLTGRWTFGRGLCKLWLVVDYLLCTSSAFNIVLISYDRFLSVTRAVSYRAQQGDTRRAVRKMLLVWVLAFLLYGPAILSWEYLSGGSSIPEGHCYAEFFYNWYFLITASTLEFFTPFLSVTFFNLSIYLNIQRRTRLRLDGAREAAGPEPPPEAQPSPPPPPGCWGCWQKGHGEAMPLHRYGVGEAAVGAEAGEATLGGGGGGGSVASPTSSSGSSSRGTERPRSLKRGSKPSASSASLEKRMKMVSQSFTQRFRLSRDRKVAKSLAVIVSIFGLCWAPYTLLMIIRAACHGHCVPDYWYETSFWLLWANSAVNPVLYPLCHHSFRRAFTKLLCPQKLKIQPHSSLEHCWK
T2 sequence (Q12809 whole entry): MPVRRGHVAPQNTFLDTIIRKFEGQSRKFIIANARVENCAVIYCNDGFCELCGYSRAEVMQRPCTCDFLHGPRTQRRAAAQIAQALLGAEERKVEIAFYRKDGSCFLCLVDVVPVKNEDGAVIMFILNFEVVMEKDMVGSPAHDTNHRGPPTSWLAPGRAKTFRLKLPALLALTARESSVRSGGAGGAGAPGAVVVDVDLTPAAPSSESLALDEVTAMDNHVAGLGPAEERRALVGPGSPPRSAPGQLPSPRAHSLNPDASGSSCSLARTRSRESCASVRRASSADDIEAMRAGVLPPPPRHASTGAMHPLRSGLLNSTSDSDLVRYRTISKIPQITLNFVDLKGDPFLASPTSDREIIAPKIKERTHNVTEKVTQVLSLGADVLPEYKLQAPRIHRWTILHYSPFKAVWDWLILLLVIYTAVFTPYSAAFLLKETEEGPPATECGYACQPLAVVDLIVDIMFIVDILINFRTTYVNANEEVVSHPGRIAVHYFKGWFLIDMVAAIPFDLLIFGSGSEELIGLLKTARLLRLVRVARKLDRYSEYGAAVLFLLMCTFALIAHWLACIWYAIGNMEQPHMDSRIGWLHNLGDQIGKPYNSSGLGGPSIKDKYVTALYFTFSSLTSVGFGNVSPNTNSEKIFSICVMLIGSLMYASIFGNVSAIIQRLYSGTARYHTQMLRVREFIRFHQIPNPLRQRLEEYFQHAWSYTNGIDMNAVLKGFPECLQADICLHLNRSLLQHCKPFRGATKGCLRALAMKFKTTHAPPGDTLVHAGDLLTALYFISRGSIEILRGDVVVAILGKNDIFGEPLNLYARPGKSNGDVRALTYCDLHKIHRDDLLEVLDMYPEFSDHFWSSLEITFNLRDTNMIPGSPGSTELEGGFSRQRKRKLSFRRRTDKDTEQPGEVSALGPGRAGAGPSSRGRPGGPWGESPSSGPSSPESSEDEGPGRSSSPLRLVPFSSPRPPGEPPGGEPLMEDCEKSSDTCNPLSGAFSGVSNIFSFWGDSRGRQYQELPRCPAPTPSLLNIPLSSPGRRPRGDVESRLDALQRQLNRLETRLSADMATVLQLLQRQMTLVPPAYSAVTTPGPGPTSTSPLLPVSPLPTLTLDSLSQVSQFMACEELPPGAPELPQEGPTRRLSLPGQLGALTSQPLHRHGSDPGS
Sequence of Cytochrome P450 3A4 (P08684 whole entry): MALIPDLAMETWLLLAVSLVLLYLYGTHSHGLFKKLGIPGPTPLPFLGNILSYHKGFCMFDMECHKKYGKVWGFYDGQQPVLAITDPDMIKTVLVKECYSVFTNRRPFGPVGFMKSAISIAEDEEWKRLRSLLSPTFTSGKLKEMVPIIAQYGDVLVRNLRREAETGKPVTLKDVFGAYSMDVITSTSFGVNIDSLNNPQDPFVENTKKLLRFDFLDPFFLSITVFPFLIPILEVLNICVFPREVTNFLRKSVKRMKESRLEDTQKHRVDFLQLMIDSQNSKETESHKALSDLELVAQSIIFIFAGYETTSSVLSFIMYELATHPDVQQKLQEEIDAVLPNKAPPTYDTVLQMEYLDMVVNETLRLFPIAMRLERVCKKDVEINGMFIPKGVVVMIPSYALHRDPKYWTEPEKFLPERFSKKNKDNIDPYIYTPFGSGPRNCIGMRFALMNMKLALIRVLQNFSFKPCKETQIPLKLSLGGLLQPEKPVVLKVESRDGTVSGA
Sequence of Cytochrome P450 2D6 (P10635 whole entry): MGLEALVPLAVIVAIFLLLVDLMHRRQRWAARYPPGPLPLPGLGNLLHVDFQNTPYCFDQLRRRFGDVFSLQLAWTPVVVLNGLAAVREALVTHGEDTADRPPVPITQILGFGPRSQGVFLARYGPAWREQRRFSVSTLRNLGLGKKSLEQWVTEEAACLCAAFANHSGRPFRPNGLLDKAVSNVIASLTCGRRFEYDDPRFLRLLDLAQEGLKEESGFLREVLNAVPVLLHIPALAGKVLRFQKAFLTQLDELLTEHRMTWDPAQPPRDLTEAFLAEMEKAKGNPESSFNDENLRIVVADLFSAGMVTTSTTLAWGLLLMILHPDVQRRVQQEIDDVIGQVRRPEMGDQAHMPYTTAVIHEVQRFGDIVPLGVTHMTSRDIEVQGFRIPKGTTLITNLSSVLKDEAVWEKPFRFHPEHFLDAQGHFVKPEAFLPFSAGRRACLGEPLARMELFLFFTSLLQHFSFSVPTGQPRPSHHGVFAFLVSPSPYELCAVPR

For the molecule `CC(C)N1CCC(NC(=O)c2ccc(OC3CCN(C4CCC4)CC3)cc2Cl)CC1`, the Ki at Histamine H3 receptor [1] is 7 nM.

As to `O=C1c2ccc(OC3CCN(C4CCC4)CC3)cc2CCN1C1CCN(C2CCC2)CC1`, the inhibitory constant (Ki) was found to be 0.8 nM on Histamine H3 receptor [1] and 0.03 nM on Histamine H3 receptor [3]. The peak level in data set [2] (Cmax) was 80 ng/mL. The half-maximal inhibitory concentration (IC50) on Histamine H3 receptor [4] worked out at 4.8 nM. In addition, at hERG (KCNH2) [5], the inhibition at 1 µM was found to be 23%. Moreover, at hERG (KCNH2) [6], at 10 µM the inhibition was 26%. The metabolised at 0.5 h came out at 10% in data set [7] and 6% in [8]. The AUCt in the data set with Rattus norvegicus [9] was determined as 1429 ng·h/mL. This molecule returned a F with Rattus norvegicus [10] of 27%. The Vz in the data set on Rattus norvegicus [11] stood at 13 L/kg. Also, the concentration at 1 h worked out at 28.5 ng/g in data set [12]; 175 ng/g in data set [13]; 765 ng/g in [14]; 3.7 ng/mL in data set [15]; 15.7 ng/mL in data set [16]; 76.3 ng/mL in [17]. For the same molecule, in data set [18], the Kp was 0.54. Also, the Activity result in the data set on Rattus norvegicus [19] was “Dose-dependent effect”. This molecule showed an ED50 in the data set on Rattus norvegicus [19] of 15.5 mg/kg.

In the case of `CC(C)N1CCC(NC(=O)c2ccc(OC3CCN(C4CCC4)CC3)cc2)C1` (racemic), the Ki at Histamine H3 receptor [1] is 26.9 nM.

Consider `CC(C)N1CCC(NC(=O)c2ccc(OC3CCN(C4CCCC4)CC3)cc2)C1` (racemic), for which, on Histamine H3 receptor [1], the inhibition constant (Ki) turned out to be 8.6 nM.

Take `O=C(NC1CCN(C2CCC2)CC1)c1ccc(OC2CCN(C3CCC3)CC2)cc1Cl`: the Ki on Histamine H3 receptor [1] was 6.7 nM.

As to `CC(C)N1CCC(Oc2ccc(C(=O)NC3CCN(C4CCC4)C3)cc2)CC1` (racemic), at Histamine H3 receptor [1], the inhibition constant (Ki) was 2.5 nM.

`CC(C)N1CCC(NC(=O)c2ccc(OC3CCN(C4CCCC4)CC3)cc2)C1` (stereo not drawn): the Ki at Histamine H3 receptor [3] amounted to 1 nM. Moreover, the IC50 at Histamine H3 receptor [4] came to 274 nM.

Turning to `Cc1cc(C(=O)NC2CCN(C3CCC3)C2)ccc1OC1CCN(C(C)C)CC1` (racemic), at Histamine H3 receptor [1], the inhibitory constant (Ki) came out at 384 nM.

As for `Cc1cc(OC2CCN(C(C)C)CC2)ccc1C(=O)NC1CCN(C2CCC2)C1` (racemic), the inhibitory constant (Ki) on Histamine H3 receptor [1] came to 9.2 nM.

On to `Cc1cc(C(=O)NC2CCN(C(C)C)C2)ccc1OC1CCN(C(C)C)CC1` (racemic), for which, at Histamine H3 receptor [1], the Ki worked out at 1360 nM.

As for `CC(C)N1CCC(NC(=O)c2ccc(OC3CCOCC3)cc2)C1` (racemic), on Histamine H3 receptor [1], the Ki is 103 nM.

Turning to `CC(C)N1CCC(Oc2ccc(C(=O)NC3CCN(C4CCC4)C3)c(F)c2)CC1` (racemic), at Histamine H3 receptor [1], the inhibitory constant (Ki) was 5.7 nM.

For `CC(C)N1CCC(Oc2ccc(C(=O)NC3CCN(C4CCC4)C3)cc2F)CC1` (racemic), at Histamine H3 receptor [1], the Ki came to 7.3 nM.

With `CC(C)N1CCC(Oc2ccc3c(c2)CCN(C2CCN(C(C)C)C2)C3=O)CC1` (racemic), on Histamine H3 receptor [1], the inhibitory constant (Ki) turned out to be 2.1 nM.

Turning to `CC(C)N1CCC(NC(=O)c2ccc(OC3CCN(C(C)C)CC3)cc2)CC1`, on Histamine H3 receptor [1], the Ki was 8.3 nM.

As to `CC(C)CN1CCC(NC(=O)c2ccc(OC3CCN(C(C)C)CC3)cc2)C1` (racemic), the inhibitory constant (Ki) on Histamine H3 receptor [1] was determined as 1 nM.

On to `CC(C)N1CCC(Oc2ccc(C(=O)NC3CCN(C4CCC4)CC3)c(F)c2)CC1`, for which, at Histamine H3 receptor [1], the inhibition constant (Ki) came out at 10.5 nM.

As for `CC(C)N1CCC(Oc2ccc(C(=O)NC3CCN(C(C)C)C3)cc2)CC1` (racemic), the Ki on Histamine H3 receptor [1] is 5.7 nM.

As to `CC(C)N1CCC(NC(=O)c2ccc(OC3CCN(C4CCC4)CC3)cc2)CC1`, the inhibition constant (Ki) at Histamine H3 receptor [1] stood at 1.6 nM.

With `CC(C)N1CCC(Oc2ccc(C(=O)NC3CCN(C4CCC4)C3)c(Cl)c2)CC1` (racemic), at Histamine H3 receptor [1], the Ki was found to be 18.4 nM.

Regarding `CC(C)N1CCC(Oc2ccc3c(c2)CCN(C2CCN(C4CCC4)CC2)C3=O)CC1`, the Ki at Histamine H3 receptor [1] turned out to be 1.8 nM.

As for `O=C1CCCN1c1ccc(Oc2ccc3c(c2)CCN(C2CCC2)CC3)nc1` [GSK239512], the Ki on Histamine H3 receptor [3] was determined as 10 nM.

`CC(C)N1CCC(NC(=O)c2ccc(OC3CCN(C(C)C)CC3)cc2F)CC1`: the Ki on Histamine H3 receptor [1] worked out at 11.4 nM.

Consider `CC(C)CN1CCC(NC(=O)c2ccc(OC3CCN(C(C)C)CC3)cc2)C1` (stereo not drawn), for which the highest level in data set [20] (Cmax) was 18 ng/mL. Also, the Ki on Histamine H3 receptor [3] is 1.2 nM. In addition, on Histamine H3 receptor [4], the IC50 is 459 nM. On hERG (KCNH2) [6], this molecule registered an inhibition at 10 µM of 35%. Also, the metabolised at 0.5 h is 18% in [7] and 8% in data set [8]. This molecule registered an AUCt with Rattus norvegicus [21] of 281 ng·h/mL. This molecule showed a F in the data set with Rattus norvegicus [22] of 81%. Further, in the data set on Rattus norvegicus [23], the t1/2 was 17.51 h.

In the case of `CC(C)N1CCC(Oc2ccc(C(=O)NC3CCN(C(C)C)C3)cc2)CC1` (stereo not drawn), the highest level in data set [20] (Cmax) was 122 ng/mL. In addition, the inhibitory constant (Ki) at Histamine H3 receptor [3] amounted to 0.9 nM. For the same molecule, the IC50 at Histamine H3 receptor [4] is 324 nM; against Cytochrome P450 3A4 it was over 45000 nM; against Cytochrome P450 2D6, over 45000 nM. Also, the inhibition at 1 µM against hERG (KCNH2) [5] stood at 21%. Moreover, the metabolised at 0.5 h in data set [7] turned out to be 12%; in data set [8] it was 4%. The AUCt in the data set on Rattus norvegicus [21] amounted to 444 ng·h/mL. Besides, in the data set with Rattus norvegicus [22], the F was found to be 75%. In the data set on Rattus norvegicus [23], this molecule registered a t1/2 of 11.67 h.

Take `CC(C)N1CCC(NC(=O)c2ccc(OC3CCN(C4CCC4)CC3)cc2)C1` (stereo not drawn): the IC50 at Cytochrome P450 3A4 and against Cytochrome P450 2D6 was over 30000 nM throughout.

`CC(C)N1CCC(Oc2ccc3c(c2)CCN(C2CCN(C4CCC4)C2)C3=O)CC1` (racemic): the Ki on Histamine H3 receptor [1] stood at 1.2 nM.

Regarding `CC(C)N1CCC(Oc2ccc3c(c2)CCN(C2CCN(C(C)C)C2)C3=O)CC1` (stereo not drawn), the Ki at Histamine H3 receptor [3] was determined as 0.1 nM. Moreover, the IC50 at Histamine H3 receptor [4] was 14.3 nM.
